# Measured values: patent publication US7790461B2, “Nano-emulsion technology for drug elution” (Medtronic MiniMed, Inc., priority 2007, dated 2010)
# What was measured:
# [1] = 0.022 mg/mL
# Procedure: To evaluate buffers with different pH, eleven milligrams of Dexamethasone Acetate was dissolved in 500 mL of media (different pH adjusted buffers).
# [2] = Stability of drug in elution media; type: physicochemical; settings: length of the study
# Procedure: The mobile phase preparation and choice of the column were instructed in the Dexamethasone Acetate monograph USP29-NF24. The mobile phase A consisted of pH 4.1 formate buffer and acetonitrile (3:2), and mobile phase B consisted of pH 4.1 formate buffer and acetonitrile (9:1). The chromatographic column (USP L11) used was an Agilent Zorbax SB-Phenyl, 4.6 mm×250 mm, 5 μm. A gradient was used with 1 mL/min flow rate. The run time was about 70 minutes. […] The injection volume for standard and samples was 100 μL.
compound,measurement,setting,value
CC(=O)OCC(=O)[C@@]1(O)[C@H](C)C[C@H]2[C@@H]3CCC4=CC(=O)C=C[C@]4(C)[C@@]3(F)[C@@H](O)C[C@@]21C [Dexamethasone Acetate],stability with respect to pH (order),[1],pH 3>pH 5≅acetate pH 5.7>water>pH 7>pH 9
same,stability in the media,[2],stable
